Data set [1] has as its system Trypanosoma brucei. The conditions noted are these: ref Zulfiqar et al., 2017; cited from earlier work.
The test system of data set [2] is T. cruzi. To be noted: ref Zulfiqar et al., 2017; cited from earlier work.
Data set [3] deals with HeLa cells. Briefly: in vitro. The data set is classed as cell-based. The method, then: (§1) HeLa299 cells were inoculated into clear, flat 96-well plates (Nunc, Delta surface, Thermo Fischer Scientific) with a density of 7,000 cells per well and cultured overnight at 37°C with 5% CO2 in […] supplemented with 10% FBS and 2 mM L-glutamine. The following day, the RPMI was replaced with DMEM without phenol red (Life Technologies, Carlsbad, CA, USA) containing 0.5% DMSO with or without test compounds at 25 and 50 μM concentrations incubated at 37°C with 5% CO2 for 48 h. At least three replicate wells for each compound concentration were tested. Wells without cells were used as blank controls. Following this incubation with compounds, cells were washed with DMEM to remove remaining colored compounds and fresh DMEM without phenol red was added before the XTT Cell Proliferation Assay kit was used according to the manufacturer's instructions (ATCC, Manassas, VA, USA). Briefly, activation reagent and XTT reagent were thawed at 37°C, then mixed in a 1:50 ratio with enough volume to add 50 μL to each well. The plates were placed in the 37°C incubator for 2.5 h. The absorbance of each well was then read at 475 nm and 660 nm with a Tecan Infinite m200 plate reader (Tecan, Männedorf, Switzerland). To analyze the data, the 660 nm reading was subtracted from the 475 nm reading to help eliminate non-specific readings from the assay results. Average blank control-well readings were subtracted from those containing cells. Final readings from wells containing compound were compared to DMSO control wells and expressed as percent of control.

Data set [4] in a line: in vitro. The data set is classed as cell-based. To be noted: human, 48 h, percent of DMSO control; for viability at 25 µM: read-out: HeLa cell viability at 25 μM (%); for viability at 50 µM: read-out: HeLa cell viability at 50 μM (%) (converted). The method, then: as §1
The test system of data set [5] is mammalian cells. To be noted: cited from earlier work.
Data set [6] deals with mCherry expressing C. trachomatis serovar L2 454/Bu. Briefly: Primary screen of natural compound library, Chlamydia inclusion count (mCherry imaging and FITC immunostaining in duplicate plates). The data set is classed as cell-based, Chlamydia trachomatis. To be noted: for inhibition at 10 µM: Chlamydia trachomatis, 48 hpi, HeLa cells, vs DMSO control. The method, then: A general and more detailed protocol for the screening assay is provided in (Supplementary Data Sheet 1) and an overview of the screening method is given in Figure 3. Since inhalation of C. trachomatis aerosols can cause laboratory acquired infections (Sewell, [1995]), all procedures involving handling of live infection in open plates were performed manually inside a class II safety cabinet using 8-channel electronic pipets (Rainin E4 XLS, Mettler Toledo, Barcelona, Spain) and an enclosed aspiration system (Intergra VacuSafe, Zizers, Switzerland).
The primary screen of the 349 open access compound library was performed using the mCherry expressing C. trachomatis serovar L2 454/Bu in clear, flat 96-well plates (Nunc, Delta surface, Thermo Fischer Scientific). The primary screen was done in duplicates in separated plates; one plate was used for mCherry imaging and the other for FITC immunostaining. Cells were seeded at a density of 10,000 cells per well in 100 μl DMEM media 1 day prior to infection in culture media. Chlamydia infection was performed in 30 μl HBSS as described above with a MOI of 0.6 during 1 h at 37°C, 5% CO2. Compounds were diluted to 10 μM in DMEM with a final DMSO concentration of 0.5% and 100 μl per well was added after aspiration of HBSS. The plates were incubated for an additional 47 h at 37°C, 5% CO2 prior to imaging. One of the duplicate plates was used for mCherry imaging and one for FITC immunostaining. For mCherry imaging, HeLa cell nuclei were first stained by addition of 10 μl […] Hoechst per well and incubated at 37°C with 5% CO2 for 20 min. The infected cells were fixed in 4% paraformaldehyde (PFA) for 15 min and washed in PBS before image acquisition. Although fixation was not necessary for the analysis, it inactivated the infectious Chlamydia and enabled later analysis after storage at 4°C. For FITC immunostaining, cells were fixed in 150 μl methanol per well for 10 min, blocked in 1% BSA, 0.25% Tween-20 in PBS and incubated with 1:1,000 polyclonal rabbit anti-chlamydial serum in blocking buffer (Marwaha et al., [2014]). A FITC-conjugated donkey anti-rabbit antibody (Jackson ImmunoResearch) and 1 μg/ml Hoechst staining was used for staining followed by washing with blocking buffer. Images of nuclei (Hoechst-ex386/23 nm) and Chlamydia inclusions (FITC: ex485/20 nm; mCherry: ex549/15 nm) were acquired in the ArrayScan with the 10x objective and counted with the built in software. Chlamydia inclusions in DMSO control wells were used to determine an inclusion size cutoff to exclude small underdeveloped inclusions as well as fluorescent artifacts from the analyses.

The conditions of data set [7]: ref Davis et al., 2013; cited from earlier work.
Data set [8] has as its system Plasmodium falciparum parasites. To be noted: antimalarial activity; ref Choomuenwai et al., 2012; cited from earlier work.
Data set [9] concerns Staphylococcus aureus. To be noted: ref Beattie et al., 2016; cited from earlier work.
In data set [10] the test system is wt C. trachomatis. Briefly: Doxycycline susceptibility, large inclusion count after immunostaining. To be noted: Chlamydia trachomatis; wt strain, HeLa cells, 48 h, FITC immunostaining; read-out: EC50 with 95% confidence interval. The data set is classed as cell-based.
Data set [11] relates to mCherry expressing C. trachomatis. Put plainly: Doxycycline susceptibility, large inclusion count by live mCherry imaging. To be noted: Chlamydia trachomatis, HeLa, 48 h, read-out: EC50 with 95% confidence interval. The data set is classed as cell-based. The method, then:
HeLa 299 cells, cultured to 70% confluence were harvested and seeded into 96-well plates (clear, flat, Nunclon Delta coated, Nunc, Thermo Fischer Scientific, Waltham, MA, USA) at a density of 10,000 per well in culture media (DMEM or RPMI 1640 supplemented with 10% FBS, 2 mM L-glutamine and 50 μg/ml gentamicin). After overnight incubation in 37°C with 5% CO2, adherent cells were infected with 30 μl mCherry expressing Chlamydia per well in HBSS with a multiplicity of infection (MOI) of 0.6. Chlamydia were incubated with the cells for 1 h at 37°C with 5% CO2 after which HBSS was removed and replaced with 100 μl culture media. DNA of host cell nuclei and Chlamydia inclusions were visualized by addition of 10 μl 10 μg/ml Hoechst 20 min prior to imaging. Live images were acquired 48 hpi in an automated HCS microscope (ArrayScan VTI, Thermo Fischer Scientific) using the 10x objective, excitation 549/15 nm for mCherry and excitation 386/23 nm for Hoechst. The number of large Chlamydia inclusions was enumerated using the built in software. An inclusion size cutoff was determined based on the 48 hpi Chlamydia inclusions to include normally developed Chlamydia inclusions and exclude fluorescent artifacts from the analyses. […] Large inclusions were counted by Arrayscan and EC50 values determined using GraphPad Prism v.5 (GraphPad software, La Jolla, CA, USA) with non-linear regression.

The mark [12] stands for this setting: MOI 0.6, FITC immunostaining, read-out: Screen inhibition at 10 μM (%) FITC.
[13] abbreviates: MOI 0.6, mCherry detection, read-out: Screen inhibition at 10 μM (%) mCherry.

In brackets after ≈: the same amount, converted by molar mass. Where two headings read alike, the source gives them in different places.

On to `NCCc1c[nH]c2c1C(=O)C1=C(NC=CS1(=O)=O)C2=O` [Compound 10, thiaplakortone A], for which, in data set [1], the “Inhibition of Trypanosoma brucei, active concentrations” value is recorded as “low micromolar concentrations”. Moreover, the “Inhibition of T. cruzi, active concentrations” value in data set [2] is “low micromolar concentrations”. Besides, in data set [3] (non-toxic = viability not below 70% of vehicle control at 25 μM), the “Toxicity to HeLa cells (authors' call)” value is “toxic”. In data set [4], the viability at 25 µM came out at 5 ± 0.4% and the viability at 50 µM is 5 ± 0.5%. Further, the “Toxicity in mammalian cells” value in data set [5] (ref Davis et al., 2013) was “moderate toxicity”. Also, the inhibition at 10 µM in data set [6] (setting [12]) is 96%. For the same compound, the inhibition at 10 µM in data set [6] (setting [13]) turned out to be 100%. Further, the “In vitro antimalarial effect, active concentrations” value in [7] is listed as “low nanomolar concentrations”.
On to `COC1=CC(=O)c2c(O)c3c(c(O)c2C1=O)C[C@](C)(O)C[C@@H]3O` [Compound 5, (1S,3S)-austrocortirubin], for which the “Reduction of HeLa cell viability” value in data set [3] (25 μM) came to 95%. Moreover, the viability at 25 µM in [4] stood at 5 ± 0.5%. Also, the viability at 50 µM in data set [4] is 5.5%. The “Toxic effects on mammalian cells” value in data set [5] (ref Choomuenwai et al., 2012, Wang et al., 2015) is “toxic effects”. For the same compound, the inhibition at 10 µM in [6] (setting [12]) was 0%; in [6] (setting [13]), 13%. Further, in data set [6] (screen at 10 μM), the “Inhibition of Chlamydia growth” value is “did not inhibit Chlamydia growth”. Also, the IC50 in data set [8] is 1900 nM. For the same compound, the “minimum inhibitory concentration (MIC)” value in [9] is 100 µM (≈ 32 µg/mL).
As to `C[C@H]1c2cccc(O)c2C(=O)C2=C(O)[C@]3(O)C(=O)C(C(N)=O)=C(O)[C@@H](N(C)C)[C@@H]3[C@@H](O)[C@@H]21` [doxycycline], the EC50 in [10] is 54.4 nM; in data set [11] it was 32.8 nM.

For orientation: viability means the share of living cells, or the viability signal relative to a control. For orientation: inhibition means the relative decrease from the control value, in per cent. A word on the IC50: it is the concentration at which inhibition is half-maximal. For orientation: EC50 means the concentration that produces a half-maximal response.

The record behind these values is PMC6305398, “Red Fluorescent Chlamydia trachomatis Applied to Live Cell Imaging and Screening for Antibacterial Agents” (Frontiers in Microbiology, 2018).
